Results as given in patent US8658642B2 (Axikin Pharmaceuticals, Inc., priority 2009, dated 2014).

molecular target: T1, CCR3 (Homo sapiens, UniProt P51677); assay: CCR3 receptor binding assay ([125I]-labeled human eotaxin/CCL11 displacement on cells); details: 0.1 nM [125I]-labeled human eotaxin/CCL11, 2×10^5 cells/well, 60 min at room temperature
T1 sequence (P51677 1-355): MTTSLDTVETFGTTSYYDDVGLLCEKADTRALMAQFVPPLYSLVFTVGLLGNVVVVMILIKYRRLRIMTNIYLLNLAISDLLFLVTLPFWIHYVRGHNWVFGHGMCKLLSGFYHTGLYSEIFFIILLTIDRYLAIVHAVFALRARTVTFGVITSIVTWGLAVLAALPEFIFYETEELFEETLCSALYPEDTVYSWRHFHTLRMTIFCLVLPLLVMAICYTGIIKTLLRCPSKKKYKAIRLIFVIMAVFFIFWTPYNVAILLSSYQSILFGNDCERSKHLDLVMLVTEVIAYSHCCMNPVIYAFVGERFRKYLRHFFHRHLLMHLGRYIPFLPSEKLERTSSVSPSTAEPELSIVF
Method: CCR3 Receptor Binding Assay
Cells were washed once with PBS and resuspended in a binding buffer (25 mM HEPES pH 7.6, 5 mM MgCl2, 1 mM CaCl2, 0.5% BSA, 0.1% NaN3). […] of cell suspension (2×10^5 cells/well) and 0.1 nM [^125I]-labeled human eotaxin/CCL11 (2000 Ci/mmol specific activity) were mixed in a 96-well U-bottom polypropylene plate, and incubated for 60 min at room temperature for the binding reaction. The cell suspension was then transferred to a filtration plate (#MAFB, Millipore), and washed 3 times with the binding buffer containing 0.5 M NaCl, scintillant added, and the radioactivity was counted on a TopCount (Packard). For the determination of non-specific binding, the cell suspension and [^125I]-labeled human eotaxin/CCL11 were incubated in the presence of 500 nM of unlabeled human eotaxin/CCL11. See, lino et al., “Molecular cloning and functional characterization of cynomolgus monkey (Macaca fascicularis) CC chemokine receptor, CCR3,” Cytokine 2002, 19, 276-286.

SMILES | Ki [µM]
Cc1cc(C)cc(Oc2ccc(C#N)cc2S(=O)(=O)N2CCN(S(C)(=O)=O)CC2)c1 [Compound 52, 4-(3,5-Dimethylphenoxy)-3-(4-(methylsulfonyl)piperazin-1-ylsulfonyl)benzonitrile] | > 5
Cc1ccc(S(=O)(=O)N2CCN(S(=O)(=O)c3cc(C#N)ccc3Oc3cc(C)cc(C)c3)CC2)cc1 [Compound 53, 4-(3,5-Dimethylphenoxy)-3-(4-tosylpiperazin-1-ylsulfonyl)benzonitrile] | > 5
Cc1cc(C)cc(Oc2ccc(C#N)cc2S(=O)(=O)N2CCN(C(=O)c3ccc(C(F)(F)F)cc3)CC2)c1 [Compound 54, 4-(3,5-Dimethylphenoxy)-3-(4-(4-(trifluoromethyl)benzoyl)piperazin-1-ylsulfonyl)benzonitrile] | > 5
Cc1cc(C)cc(Oc2ccc(C#N)cc2S(=O)(=O)N2CCN(C(=O)c3ccccc3)CC2)c1 [Compound 55, 3-(4-Benzoylpiperazin-1-ylsulfonyl)-4-(3,5-dimethylphenoxy)benzonitrile] | > 5
Cc1cc(C)cc(Oc2ccc(C#N)cc2S(=O)(=O)N2CCN(S(=O)(=O)CC(C)C)CC2)c1 [Compound 56, 4-(3,5-Dimethylphenoxy)-3-(4-(isobutylsulfonyl)piperazin-1-ylsulfonyl)benzonitrile] | > 5
CCC(C)(C)C(=O)N1CCN(S(=O)(=O)c2cc(C#N)ccc2Oc2cc(C)cc(C)c2)CC1 [Compound 59, 3-(4-(2,2-Dimethylbutanoyl)piperazin-1-ylsulfonyl)-4-(3,5-dimethylphenoxy)benzonitrile] | > 5
Cc1cc(C)cc(Oc2ccc(C#N)cc2S(=O)(=O)N2CCN(S(=O)(=O)c3ccc(C(F)(F)F)cc3)CC2)c1 [Compound 60, 4-(3,5-dimethylphenoxy)-3-(4-(4-(trifluoromethyl)phenylsulfonyl)piperazin-1-ylsulfonyl)benzonitrile] | > 5
Cc1cc(C)cc(Oc2ccc(C#N)cc2S(=O)(=O)N2CCN(C(=O)Nc3cccc(F)c3)CC2)c1 [Compound 61, 4-(5-Cyano-2-(3,5-dimethylphenoxy)phenylsulfonyl)-N-(3-fluorophenyl)piperazine-1-carboxamide] | > 5
CCc1ccc(NC(=O)N2CCN(S(=O)(=O)c3cc(C#N)ccc3Oc3cc(C)cc(C)c3)CC2)cc1 [Compound 62, 4-(5-Cyano-2-(3,5-dimethylphenoxy)phenylsulfonyl)-N-(4-ethylphenyl)piperazine-1-carboxamide] | > 5
Cc1cc(C)cc(Oc2ccc(C#N)cc2S(=O)(=O)N2CCN(C(=O)C(C)(C)C)CC2)c1 [Compound 63, 4-(3,5-Dimethylphenoxy)-3-(4-pivaloylpiperazin-1-ylsulfonyl)benzonitrile] | > 5
Cc1cc(C)cc(Oc2ccc(C#N)cc2S(=O)(=O)N2CCN(C(=O)C3CCC3)CC2)c1 [Compound 64, 3-(4-(Cyclobutanecarbonyl)piperazin-1-ylsulfonyl)-4-(3,5-dmethylphenoxy)benzonitrile] | > 5
Cc1cc(C)cc(Oc2ccc(C#N)cc2S(=O)(=O)N2CCN(C(=O)C3CCCCC3)CC2)c1 [Compound 65, 3-(4-(Cyclohexanecarbonyl)piperazin-1-ylsulfonyl)-4-(3,5-dimethylphenoxy)benzonitrile] | > 5
Cc1cc(C)cc(Oc2ccc(C#N)cc2S(=O)(=O)N2CCN(C(=O)CC(C)C)CC2)c1 [Compound 66, 4-(3,5-Dimethylphenoxy)-3-(4-(3-methylbutanoyl)piperazin-1-ylsulfonyl)benzonitrile] | > 5
Cc1cc(C)cc(Oc2ccc(C#N)cc2S(=O)(=O)N2CCN(C(=O)CC(C)(C)C)CC2)c1 [Compound 67, 3-(4-(3,3-Dimethylbutanoyl)piperazin-1-ylsulfonyl)-4-(3,5-dimethylphenoxy)benzonitrile] | > 5
Cc1cc(C)cc(Oc2ccc(C#N)cc2S(=O)(=O)N2CCN(C(=O)C3CCCC3)CC2)c1 [Compound 68, 3-(4-(Cyclopentanecarbonyl)piperazin-1-ylsulfonyl)-4-(3,5-dimethylphenoxy)benzonitrile] | > 5
N#Cc1ccc(Oc2cc(Cl)cc(Cl)c2)c(S(=O)(=O)N2CCN(C(=O)c3ccc(C(F)(F)F)cc3)CC2)c1 [Compound 69, 4-(3,5-Dichlorophenoxy)-3-(4-(4-(trifluoromethyl)benzoyl)piperazin-1-ylsulfonyl)benzonitrile] | > 5
CC(C)(C)CC(=O)N1CCN(S(=O)(=O)c2cc(C#N)ccc2Oc2cc(Cl)cc(Cl)c2)CC1 [Compound 71, 4-(3,5-Dichlorophenoxy)-3-(4-(3,3-dimethylbutanoyl)piperazin-1-ylsulfonyl)benzonitrile] | > 5
N#Cc1ccc(Oc2cc(Cl)cc(Cl)c2)c(S(=O)(=O)N2CCN(C(=O)C3CCC3)CC2)c1 [Compound 73, 3-(4-(Cyclobutanecarbonyl)piperazin-1-ylsulfonyl)-4-(3,5-dichlorophenoxy)benzonitrile] | > 5
N#Cc1ccc(Oc2cc(Cl)cc(Cl)c2)c(S(=O)(=O)N2CCN(C(=O)C3CCCC3)CC2)c1 [Compound 74, 3-(4-(Cyclopentanecarbonyl)piperazin-1-ylsulfonyl)-4-(3,5-dichlorophenoxy)benzonitrile] | > 5

Now from value to compound:

Ki [µM] | SMILES
> 5 | Cc1cc(C)cc(Oc2ccc(C#N)cc2S(=O)(=O)N2CCN(S(=O)(=O)CC34CCC(CC3=O)C4(C)C)CC2)c1 (stereo not shown) [Compound 51]
0.5 to 5 | CCC(=O)N1CCN(S(=O)(=O)c2cc(C#N)ccc2Oc2cc(C)cc(C)c2)CC1 [Compound 57, 4-(3,5-dimethylphenoxy)-3-(4-propionylpiperazin-1-ylsulfonyl)benzonitrile]
0.05 to 0.5 | Cc1cc(C)cc(Oc2ccc(C#N)cc2S(=O)(=O)N2CCN(C(=O)NC(C)C)CC2)c1 [Compound 58, 4-(5-cyano-2-(3,5-dimethylphenoxy)phenylsulfonyl)-N-isopropylpiperazine-1-carboxamide]
≤ 0.05 | N#Cc1ccc(Oc2cc(Cl)cc(Cl)c2)c(S(=O)(=O)N2CCN(C(=O)c3ccccc3)CC2)c1 [Compound 70, 3-(4-Benzoylpiperazin-1-ylsulfonyl)-4-(3,5-dichlorophenoxy)benzonitrile]
0.5 to 5 | CC(C)CC(=O)N1CCN(S(=O)(=O)c2cc(C#N)ccc2Oc2cc(Cl)cc(Cl)c2)CC1 [Compound 72, 4-(3,5-Dichlorophenoxy)-3-(4-(3-methylbutanoyl)piperazin-1-ylsulfonyl)benzonitrile]
≤ 0.05 | N#Cc1ccc(Oc2cc(Cl)cc(Cl)c2)c(S(=O)(=O)N2CCN(C(=O)Nc3cccc(F)c3)CC2)c1 [Compound 75, 4-(5-Cyano-2-(3,5-dichlorophenoxy)phenylsulfonyl)-N-(3-fluorophenyl)piperazine-1-carboxamide]
≤ 0.05 | CS(=O)(=O)N1CCN(S(=O)(=O)c2cc(C#N)ccc2Oc2cc(Cl)cc(Cl)c2)CC1 [Compound 76, 4-(3,5-Dichlorophenoxy)-3-(4-(methylsulfonyl)piperazin-1-ylsulfonyl)benzonitrile]
≤ 0.05 | Cc1ccc(S(=O)(=O)N2CCN(S(=O)(=O)c3cc(C#N)ccc3Oc3cc(Cl)cc(Cl)c3)CC2)cc1 [Compound 77, 4-(3,5-Dichlorophenoxy)-3-(4-tosylpiperazin-1-ylsulfonyl)benzonitrile]
0.05 to 0.5 | N#Cc1ccc(Oc2cc(Cl)cc(Cl)c2)c(S(=O)(=O)N2CCN(C(=O)c3ccc(Cl)cc3)CC2)c1 [Compound 78, 3-(4-(4-Chlorobenzoyl)piperazin-1-ylsulfonyl)-4-(3,5-dichlorophenoxy)benzonitrile]
